Article PMC11477000, “Enantioselective Binding of Proton Pump Inhibitors to Alpha1-Acid Glycoprotein and Human Serum Albumin—A Chromatographic, Spectroscopic, and In Silico Study” (International Journal of Molecular Sciences, 2024)
Read-outs that look alike come from different tables or passages of the source. Each block holds one compound with its values, some of them ahead of it.

Experiments:
[1] = target: T1, HSA (Homo sapiens, UniProt P02768); experiment: UV titration (Benesi–Hildebrand) with HSA; assay type: binding; settings: n = 3, 1 μM HSA, pH 7.4 phosphate buffer, 24 °C, 278 nm, read-out: logKHSA ± Stdev. (logarithm of stability constant) (converted)
T1 construct: purchased Sigma-Aldrich
Protocol: The UV-Vis absorption assay is a straightforward and relatively simple method to examine the interactions between small molecules and macromolecules. Changes in the structure of the protein caused by the interacting ligand can lead to alterations in the absorption spectrum. […] Fixed wavelength measurements were conducted at the absorption maxima of AGP and HSA. […] The change in the absorbance and wavelength maximum in the UV spectra during the titration refers to the complex formation between proteins and PPIs. The Benesi–Hildebrand method was used to determine the stability constants based on Equation (7).
The absorption spectra were recorded on a Jasco V-750 spectrophotometer (Jasco, Tokyo, Japan) at 24 °C using 1.0 cm path-length quartz cuvettes. Then, 1 μM HSA and AGP were dissolved in a sodium phosphate buffer solution (pH 7.4; 0.1 M) and their concentration was kept constant. The PPIs were dissolved in DMSO, and further diluted with the AGP or HSA solution. Next, 1000 μL of 1 μM HSA and AGP solutions was titrated with the PPI stock solution in 1 μL steps. The concentration of the PPIs was set to 4.00, 7.98, 11.96, 15.94, 19.90, 23.86, 27.81, and 31.75 μM. The binding constants were determined using the Benesi–Hildebrand equation:(7) A0/A−A0=εPPI/εAPPI−εPPI+εPPI/εAPPI−εPPI×1/K×[C] where A0 is the absorbance of the HSA or AGP at 278 nm, A is the absorbance of the formed complex also at 278 nm, εPPI is the extinction coefficient of the actual PPI, εAPPI is the extinction coefficient of the albumin or AGP and PPI complex, K is the binding coefficient, and [C] is the concentration of the investigated PPI. The plot of A0/A − A0 versus C^−1 has a slope of K^−1. All experiments were performed in triplicate.

[2] = system: α1-acid glycoprotein (AGP); experiment: van 't Hoff thermodynamic analysis on AGP column; assay type: binding, human; settings: Δ(ΔH°)/Δ(ΔS°)
Protocol: The temperature effect was investigated at pH 7 and a 95:5 buffer:IPA eluents ratio, between 10 and 30 °C on both columns. […] The determination of thermodynamic parameters can provide valuable insights into the process of enantiodiscrimination, including its mechanistic aspects. The applied classical van ’t Hoff methodology postulates the existence of solely enantioselective interaction sites on the stationary phase. Nonetheless, it should be emphasized that a more realistic approach would encompass both enantioselective and non-enantioselective interactions. The isoenantioselective temperatures (Tiso) were calculated by dividing Δ(ΔH°) by Δ(ΔS°). At this temperature, enthalpy and entropy compensations negate each other, resulting in the coelution of the two enantiomers and no separation. […]
In the equation, R represents the universal gas constant, T represents the absolute temperature in Kelvin, and k represents the retention factor of the enantiomers. ΔH° stands for the standard enthalpy, while ΔS° represents the standard entropy change of transfer of the solute from the mobile phase to the stationary phase. Φ is the phase ratio of the column. […] Similarly, the difference in the change of standard enthalpy, Δ(ΔH°), and standard entropy, Δ(ΔS°), for the two enantiomers was calculated as follows:(6) lnα=−ΔΔH°/RT+ΔΔS°/R

[3] = target: BSA; settings: racemic, ref [39]; cited from earlier work
[4] = target: T1, HSA; settings: ref [41]; cited from earlier work
[5] = target: T1, HSA; settings: ref [42]; cited from earlier work

T1 sequence (P02768 25-609): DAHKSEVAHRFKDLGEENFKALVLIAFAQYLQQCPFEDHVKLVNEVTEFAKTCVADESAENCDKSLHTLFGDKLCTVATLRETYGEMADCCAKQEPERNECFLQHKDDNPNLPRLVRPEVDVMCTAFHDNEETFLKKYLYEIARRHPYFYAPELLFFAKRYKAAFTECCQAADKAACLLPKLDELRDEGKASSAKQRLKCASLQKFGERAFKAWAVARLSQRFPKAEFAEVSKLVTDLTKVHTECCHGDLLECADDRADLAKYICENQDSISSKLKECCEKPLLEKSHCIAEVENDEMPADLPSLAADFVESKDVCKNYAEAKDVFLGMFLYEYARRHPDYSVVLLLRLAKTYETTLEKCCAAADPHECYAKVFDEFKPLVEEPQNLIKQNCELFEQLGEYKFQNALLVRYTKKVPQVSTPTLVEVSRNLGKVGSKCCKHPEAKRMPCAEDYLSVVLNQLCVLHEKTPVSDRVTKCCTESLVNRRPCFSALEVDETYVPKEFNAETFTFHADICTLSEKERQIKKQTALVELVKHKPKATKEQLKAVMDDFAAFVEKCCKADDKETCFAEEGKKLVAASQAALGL

Compound: Cc1c(OCC(F)(F)F)ccnc1C[S@+]([O-])c1nc2ccccc2[nH]1 [S-lansoprazole]
- Kd [1]: 21.9 µM

- Tiso isoenantioselective temperature [2]: −16.3 °C
Compound: Cc1c(OCC(F)(F)F)ccnc1C[S+]([O-])c1nc2ccccc2[nH]1 (stereo not drawn) [Lansoprazole, lansoprazole]

Compound: COc1ccc2[nH]c([S+]([O-])Cc3ncc(C)c(OC)c3C)nc2c1 (stereo not drawn) [Omeprazole, omeprazole]
- logK [3]: 4.58
- logK [4]: 4.61

Compound: Cc1c(OCC(F)(F)F)ccnc1C[S@@+]([O-])c1nc2ccccc2[nH]1 [R-lansoprazole, dexlansoprazole]
- Kd [1]: 60.3 µM
- logK [5]: logK = 3.44 Binding to subdomain IIA
